Measured values taken from patent publication US20230348475A1, “IMIDAZOPYRIDAZINE AND IMIDAZOPYRAZINE COMPOUNDS AS INHIBITORS OF CDK7” (THE TRANSLATIONAL GENOMICS RESEARCH INSTITUTE, priority 2020, published 2023).
Structures can show the parent of a compound that is named as a salt.

What was measured:
[1] = test system: A2780 ovarian cancer cell line; experiment: Cell viability assay (Cell Titer Glo), A2780; type: cell-based; settings: Homo sapiens, A2780, Table 7a, 72 hour incubation
Method: (§1) Materials: • Cell Lines (Treated according to ATCC guidelines) • Cell Titer Glo (Promega Cat #G7572) • DMSO • 96-well White Tissue Culture Treated Plates (Perkin Elmer Cat #60005680)
(§2) Cells were seeded in a white 96-well tissue culture treated plate at a density of 1500 cells in 90 μL of media per well and allowed to settle overnight. A ten point serial dilution of drugs was prepared at 10×concentration in media with the final assay concentrations starting at 30 μM, 10 μM, 3 μM, 1 μM, 0.3 μM . . . 0 μM. A dilution of DMSO was included as a control. The assay was set up by adding 10 μL of the corresponding drug to each well in duplicate, followed by a 72 hour incubation at 37° C., 5% CO2. Cell viability was quantified by adding 90 μL of Cell Titer Glo to each well and incubating at room temperature for 10 minutes. The reaction was quantified by measuring luminescence using the Envision Plate Reader. Data was analyzed using Graphpad Prism 7 software.

[2] = test system: HPAC pancreatic cancer cell line; experiment: Cell viability assay (Cell Titer Glo), HPAC; type: cell-based; settings: Homo sapiens, HPAC; Table 7a; pancreatic cancer cell line, 72 hour incubation
Method: as §1, §2

[3] = test system: Kasumi1 leukemia cancer cell line; experiment: Cell viability assay (Cell Titer Glo), Kasumi1; type: cell-based; settings: Homo sapiens, Kasumi 1, Table 7a, 72 hour incubation
Method: as §1, §2

[4] = test system: MiaPaCa2 pancreatic cancer cell line; experiment: Cell viability assay (Cell Titer Glo), MiaPaCa2; type: cell-based; settings: Homo sapiens, MIA PaCa-2; Table 7a; pancreatic cancer cell line, 72 hour incubation
Method: as §1, §2

CDK7/CycH/MAT1 = CDK7/CycH/MAT1 (Homo sapiens, UniProt P50613); experiment: Kinase Glo (ADP-Glo) biochemical assay, CDK7; settings: CDK7/CycH/MAT1 40 ng, ATP 1 μM, 60 minutes at RT, luminescence
Chain of CDK7/CycH/MAT1 (P50613 whole entry): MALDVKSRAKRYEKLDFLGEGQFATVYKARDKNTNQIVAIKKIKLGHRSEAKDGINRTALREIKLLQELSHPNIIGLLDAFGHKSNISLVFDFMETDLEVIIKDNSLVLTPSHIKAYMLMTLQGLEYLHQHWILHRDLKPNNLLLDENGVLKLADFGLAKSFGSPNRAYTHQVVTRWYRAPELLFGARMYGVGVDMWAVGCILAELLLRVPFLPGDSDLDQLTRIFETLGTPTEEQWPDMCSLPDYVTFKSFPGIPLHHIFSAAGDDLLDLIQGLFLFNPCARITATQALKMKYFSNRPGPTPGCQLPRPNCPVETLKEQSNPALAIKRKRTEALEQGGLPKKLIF
Chain of CDK7/CycH/MAT1 (P51946 whole entry partner): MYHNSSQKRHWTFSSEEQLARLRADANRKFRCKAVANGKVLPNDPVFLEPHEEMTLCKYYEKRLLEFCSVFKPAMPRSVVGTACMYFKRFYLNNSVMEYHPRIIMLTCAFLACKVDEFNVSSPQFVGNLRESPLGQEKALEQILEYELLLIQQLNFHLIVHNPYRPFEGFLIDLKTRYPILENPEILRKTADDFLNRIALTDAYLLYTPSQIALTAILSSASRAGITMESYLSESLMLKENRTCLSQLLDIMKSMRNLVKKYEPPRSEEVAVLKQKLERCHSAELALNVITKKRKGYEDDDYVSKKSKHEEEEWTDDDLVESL
Chain of CDK7/CycH/MAT1 (P51948 whole entry partner): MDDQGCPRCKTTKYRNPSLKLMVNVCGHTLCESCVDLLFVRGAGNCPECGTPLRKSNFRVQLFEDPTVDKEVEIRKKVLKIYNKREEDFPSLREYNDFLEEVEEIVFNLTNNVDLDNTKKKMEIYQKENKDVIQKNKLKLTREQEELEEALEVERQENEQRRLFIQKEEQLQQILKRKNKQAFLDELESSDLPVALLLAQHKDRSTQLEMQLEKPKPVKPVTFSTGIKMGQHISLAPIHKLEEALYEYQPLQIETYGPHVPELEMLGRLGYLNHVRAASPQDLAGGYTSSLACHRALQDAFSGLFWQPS
Method: Materials: • Assay Buffer: 50 mM HEPES, 3 mM MgCl2, 3 mM MnCl2, 1 mM DTT, 3 μM Na3VO4, pH 7.5 • Substrate RB • CTF Peptide (ProQinase #: 0040-0000-6) • Enzymes • CDK7/CycH/MAT1 (ProQinase #: 0366-0360-4) • ADP-Glo™ Assay (Promega #: V9101) • ATP: 10 mM • ADP-Glo™ Reagent • Kinase Detection Reagent • 384-well white assay plates
A ten point serial dilution of compound was prepared at 5X concentration in assay buffer with the final assay concentrations starting at 30 μM, 10 μM, 3 μM, 1 μM . . . 0 μM. Enzyme, substrate, and ATP were used at 40 ng, 200 ng (or 400 ng)* and 1 μM, respectively. The assay plate was set up by mixing the components in a total reaction volume of 10 μL per well. The plate was centrifuged gently for 10 seconds and incubated at room temperature (RT) for 60 minutes in the dark. The ADP-Glo Reagent and kinase detection reagent were added and incubated as recommended. The reaction was quantified by measuring luminescence on the Perkin Elmer Envision plate reader.

[5] = test system: A673 Ewingsarcoma cell line; experiment: Cell viability assay (Cell Titer Glo), A673; type: cell-based; settings: Homo sapiens, A673, Table 7a, 72 hour incubation
Method: as §1, §2

Structure (SMILES)	IC50 [1] [nM]	IC50 [2] [nM]	IC50 [3] [nM]	IC50 [4] [nM]	IC50 (CDK7/CycH/MAT1) [nM]	IC50 [5] [nM]
CC(C)c1cnc2c(NCc3ccc(F)cc3F)cc(SC3CCNCC3)nn12 [Compound 56, N-(2,4-difluorobenzyl)-3-isopropyl-6-(piperidin-4-ylthio)imidazo[1,2-b]pyridazin-8-amine hydrochloride]	< 1000	< 1000	1000 to 5000	< 1000	< 100	
CC(C)c1cnc2c(NCc3ccccc3-n3cccn3)cc(SC3CCCNC3)nn12 (centres unmarked) [Compound 63, N-(2-(1H-pyrazol-1-yl)benzyl)-3-isopropyl-6-(piperidin-3-ylthio)imidazo[1,2-b]pyridazin-8-amine hydrochloride]		< 1000	< 1000	< 1000	< 100	1000 to 5000
Fc1cccc(Nc2cc(O[C@@H]3CCNC3)nn3c(C4CC4)cnc23)c1 [Compound 6, (R)-3-cyclopropyl-N-(3-fluorophenyl)-6-(pyrrolidin-3-yloxy)imidazo[1,2-b]pyridazin-8-amine]	1000 to 5000	< 1000	1000 to 5000	1000 to 5000	< 100	
CC(C)c1cnc2c(NCc3ccccc3OC(F)F)cc(SC3CCNCC3)nn12 [Compound 66, N-(2-(difluoromethoxy)benzyl)-3-isopropyl-6-(piperidin-4-ylthio)imidazo[1,2-b]pyridazin-8-amine hydrochloride]		< 1000	1000 to 5000	< 1000	< 100	< 1000
CC(C)c1cnc2c(NCc3ccccc3C(F)(F)F)cc(SC3CCNCC3F)nn12 (centres unmarked) [Compound 77, 6-((3-fluoropiperidin-4-yl)thio)-3-isopropyl-N-(2-(trifluoromethyl)benzyl)imidazo[1,2-b]pyridazin-8-amine hydrochloride]	1000 to 5000	1000 to 5000	1000 to 5000	1000 to 5000	< 100	
CC(C)c1cnc2c(NCc3ccccc3-n3cccn3)nc(SC3CCCNC3)cn12 (stereo not drawn) [Compound 68, N-(2-(1H-pyrazol-1-yl)benzyl)-3-isopropyl-6-(piperidin-3-ylthio)imidazo[1,2-α]pyrazin-8-amine hydrochloride]					< 100	
CC(C)c1cnc2c(NCc3ccc(F)cc3C(F)(F)F)cc(SC3CCCNC3)nn12 (centres unmarked) [Compound 81, N-(4-fluoro-2-(trifluoromethyl)benzyl)-3-isopropyl-6-(piperidin-3-ylthio)imidazo[1,2-b]pyridazin-8-amine hydrochloride]					100 to 1000	
CN1CCC(Oc2cc(Nc3cccc(F)c3)c3ncc(C4CC4)n3n2)CC1 [Compound 2, 3-cyclopropyl-N-(3-fluorophenyl)-6-((1-methylpiperidin-4-yl)oxy)imidazo[1,2-b]pyridazin-8-amine]					100 to 1000	
CC(C)c1cnc2c(NCc3ccccc3)cc(NC[C@H]3CCCNC3)nn12 [Compound I-4]					100 to 1000	
CC(C)c1cnc2c(NCc3ccccc3OC(F)(F)F)cc(OC3CCNCC3F)nn12 (centres unmarked) [Compound 70, 6-((3-fluoropiperidin-4-yl)oxy)-3-isopropyl-N-(2-(trifluoromethoxy)benzyl)imidazo[1,2-b]pyridazin-8-amine hydrochloride]	1000 to 5000	1000 to 5000	1000 to 5000	1000 to 5000	< 100	
CN1CC[C@@H](Oc2cc(Nc3cccc(F)c3)c3ncc(C4CC4)n3n2)C1 [Compound 3, (R)-3-cyclopropyl-N-(3-fluorophenyl)-6-((1-methylpyrrolidin-3-yl)oxy)imidazo[1,2-b]pyridazin-8-amine]					100 to 1000	
CC(C)c1cnc2c(Nc3c(F)cccc3F)cc(SC3CCCNC3)nn12 (centres unmarked) [Compound 59, N-(2,6-difluorophenyl)-3-isopropyl-6-(piperidin-3-ylthio)imidazo[1,2-b]pyridazin-8-amine hydrochloride]					< 100	
CN1CCC[C@H](Oc2cc(Nc3cccc(F)c3)c3ncc(C4CC4)n3n2)C1 [Compound 7, (S)-3-cyclopropyl-N-(3-fluorophenyl)-6-((1-methylpiperidin-3-yl)oxy)imidazo[1,2-b]pyridazin-8-amine]					> 1000	
c1ccc(CNc2cc(NCCC3CNCCO3)nn3c(C4CC4)cnc23)cc1 (centres unmarked) [Compound 19, N8-benzyl-3-cyclopropyl-N6-(2-(morpholin-2-yl)ethyl)imidazo[1,2-b]pyridazine-6,8-diamine formate]					100 to 1000	
CC(C)c1cnc2c(Nc3ccccc3OC(F)(F)F)cc(SC3CCCNC3)nn12 (centres unmarked) [Compound 60, 3-isopropyl-6-(piperidin-3-ylthio)-N-(2-(trifluoromethoxy)phenyl)imidazo[1,2-b]pyridazin-8-amine hydrochloride]					100 to 1000	
CC(C)c1cnc2c(NCc3cccc(OC(F)(F)F)c3)cc(SC3CCNCC3)nn12 [Compound 54, 3-isopropyl-6-(piperidin-4-ylthio)-N-(3-(trifluoromethoxy)benzyl)imidazo[1,2-b]pyridazin-8-amine hydrochloride]					< 100	
COc1ccccc1CNc1cc(SC2CCNCC2F)nn2c(C(C)C)cnc12 (centres unmarked) [Compound 73, 6-((3-fluoropiperidin-4-yl)thio)-3-isopropyl-N-(2-methoxybenzyl)imidazo[1,2-b]pyridazin-8-amine hydrochloride]	1000 to 5000	1000 to 5000	1000 to 5000	1000 to 5000	< 100	
CN1CC[C@H](Oc2cc(NCc3ccccc3)c3ncc(C4CC4)n3n2)C1 [Compound 8, (S)—N-benzyl-3-cyclopropyl-6-((1-methylpyrrolidin-3-yl)oxy)imidazo[1,2-b]pyridazin-8-amine]					100 to 1000	
CN1CCC[C@@H](Oc2cc(Nc3cccc(F)c3)c3ncc(C4CC4)n3n2)C1 [Compound 4, (R)-3-cyclopropyl-N-(3-fluorophenyl)-6-((1-methylpiperidin-3-yl)oxy)imidazo[1,2-b]pyridazin-8-amine]					> 1000	
CN1CC[C@H](Oc2cc(Nc3cccc(F)c3)c3ncc(C4CC4)n3n2)C1 [Compound 5, (S)-3-cyclopropyl-N-(3-fluorophenyl)-6-((1-methylpyrrolidin-3-yl)oxy)imidazo[1,2-b]pyridazin-8-amine]					100 to 1000	
Fc1cccc(Nc2cc(O[C@H]3CCCNC3)nn3c(C(F)(F)F)cnc23)c1 [Compound 82, (S)-N-(3-fluorophenyl)-6-(piperidin-3-yloxy)-3-(trifluoromethyl)imidazo[1,2-b]pyridazin-8-amine hydrochloride]					< 100	
c1ccc(CNc2cc(SC3CCNCC3)nn3c(C4CC4)cnc23)cc1 [Compound 18, N-benzyl-3-cyclopropyl-6-(piperidin-4-ylthio)imidazo[1,2-b]pyridazin-8-amine hydrochloride]					< 100	
c1ccc(CNc2nc(SC3CCNCC3)cn3c(C4CC4)cnc23)cc1 [Compound 21, N-benzyl-3-cyclopropyl-6-(piperidin-4-ylthio)imidazo[1,2-α]pyrazin-8-amine formate salt]					100 to 1000	
O=C(N1CCC(Sc2cc(NCc3ccccc3)c3ncc(C4CC4)n3n2)CC1)C(F)(F)F [Compound 20, 1-(4-((8-(benzylamino)-3-cyclopropylimidazo[1,2-b]pyridazin-6-yl)thio)piperidin-1-yl)-2,2,2-trifluoroethan-1-one]					> 1000	
COc1ccccc1CNc1cc(OC2CCN(C)CC2)nn2c(C3CC3)cnc12 [Compound I-2]					100 to 1000	
